Experimental data published in PubChem BioAssay AID328 (DTP/NCI, 2004).
Where “and” joins values, the source holds several entries; their conditions need not be identical. Equal entries are not always repeated. Inconclusive results and toxic doses are left out. The calls were made as follows: active = survival T/C of 150% or more; inactive = T/C below 125% in these data.

Tested on: BDF1 mice, P388 leukemia ip, median survival T/C
Experiment: NCI In Vivo Anticancer Drug Screen. Data for tumor model P388 Leukemia (intraperitoneal) in B6D2F1 (BDF1) mice
Settings: endpoint: median survival time, higher = longer survival
Summary of the method: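 Antitumour effect was judged in vivo: survival in drug-treated mice, normalised to that of vehicle-dosed controls, gives the reported T/C.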

[1] = dose: 75.0 mg/kg/injection, schedule: Q04DX003 (ip), vehicle: saline
[2] = dose: 100.0 mg/kg/injection, schedule: Q04DX003 (ip), vehicle: saline
[3] = dose: 100.0 mg/kg/injection, schedule: Q01DX009 (ip), vehicle: saline with Tween-80
[4] = dose: 200.0 mg/kg/injection, schedule: Q01DX009 (ip), vehicle: saline with Tween-80
[5] = dose: 400.0 mg/kg/injection, schedule: Q01DX009 (ip), vehicle: saline with Tween-80
[6] = dose: 200.0 mg/kg/injection, schedule: Q04DX003 (ip), vehicle: saline
[7] = dose: 100.0 mg/kg/injection, schedule: Q04DX003 (ip), vehicle: saline with Tween-80
[8] = dose: 200.0 mg/kg/injection, schedule: Q04DX003 (ip), vehicle: saline with Tween-80
[9] = dose: 400.0 mg/kg/injection, schedule: Q04DX003 (ip), vehicle: saline with Tween-80
[10] = dose: 50.0 mg/kg/injection, schedule: Q01DX009 (ip), vehicle: saline with Tween-80
[11] = dose: 150.0 mg/kg/injection, schedule: Q04DX003 (ip), vehicle: saline
[12] = dose: 400.0 mg/kg/injection, schedule: Q04DX003 (ip), vehicle: saline

Measured: T/C

NC(CCl)=NC1CCCCC1
inactive: dose: 12.5 mg/kg/injection, schedule: Q04DX003 (ip), vehicle: saline 102 % of control | dose: 22.0 mg/kg/injection, schedule: Q04DX003 (ip), vehicle: saline 121 % of control | dose: 25.0 mg/kg/injection, schedule: Q04DX003 (ip), vehicle: saline 117 % of control | [1] 96 % of control | [2] 88 % of control

Clc1ccc(/C(=C(\Br)c2ccccc2)c2ccccc2)cc1
inactive: [3] 104 % of control and 100 % of control | [4] 86 % of control and 100 % of control | [5] 95 % of control and 90 % of control

O=C(O)CN(Cc1ccccc1)Sc1ccccc1[N+](=O)[O-]
inactive: dose: 25.0 mg/kg/injection, schedule: Q04DX003 (ip), vehicle: other 105 % of control | dose: 50.0 mg/kg/injection, schedule: Q04DX003 (ip), vehicle: other 117 % of control | dose: 200.0 mg/kg/injection, schedule: Q04DX003 (ip), vehicle: other 117 % of control

CN(C)c1ccc(-c2cc[n+](C)cc2)cc1
inactive: dose: 0.5 mg/kg/injection, schedule: Q01DX009 (ip), vehicle: saline 119 % of control | dose: 1.0 mg/kg/injection, schedule: Q01DX009 (ip), vehicle: saline 111 % of control | dose: 2.0 mg/kg/injection, schedule: Q01DX009 (ip), vehicle: saline 91 % of control | dose: 3.0 mg/kg/injection, schedule: Q01DX009 (ip), vehicle: saline 106 % of control | dose: 6.0 mg/kg/injection, schedule: Q01DX009 (ip), vehicle: saline 114 % of control

Cc1ccc(S(=O)(=O)CC#CCOc2ccccc2)cc1
inactive: dose: 50.0 mg/kg/injection, schedule: Q04DX003 (ip), vehicle: saline 100 % of control | [2] 100 % of control | [6] 104 % of control

COc1ccc(CCNC(=O)Cc2ccccc2)cc1OC
inactive: [3] 95 % of control | [7] 109 % of control | [4] 90 % of control | [8] 100 % of control | [5] 100 % of control | [9] 100 % of control

Cc1c(Cl)cccc1NC(=O)Nc1ccccc1
inactive: dose: 100.0 mg/kg/injection, schedule: Q04DX003 (ip), vehicle: DMSO 103 % of control | dose: 200.0 mg/kg/injection, schedule: Q04DX003 (ip), vehicle: DMSO 100 % of control | dose: 400.0 mg/kg/injection, schedule: Q04DX003 (ip), vehicle: DMSO 107 % of control

COc1ccc(/C(C#N)=C\c2ccnc3ccccc23)cc1
inactive: dose: 12.5 mg/kg/injection, schedule: Q01DX009 (ip), vehicle: other 89 % of control | dose: 25.0 mg/kg/injection, schedule: Q01DX009 (ip), vehicle: other 93 % of control | dose: 50.0 mg/kg/injection, schedule: Q01DX009 (ip), vehicle: other 90 % of control | dose: 200.0 mg/kg/injection, schedule: Q01DX009 (ip), vehicle: other 100 % of control

Clc1ncnc2nc[nH]c12
inactive: dose: 7.5 mg/kg/injection, schedule: Q01DX010 (ip), vehicle: saline 92 % of control and 118 % of control | dose: 15.0 mg/kg/injection, schedule: Q01DX010 (ip), vehicle: saline 92 % of control and 122 % of control | dose: 30.0 mg/kg/injection, schedule: Q01DX010 (ip), vehicle: saline 100 % of control | dose: 60.0 mg/kg/injection, schedule: Q01DX010 (ip), vehicle: saline 100 % of control

CCOC1=CCCCC1
inactive: dose: 100.0 mg/kg/injection, schedule: Q01DX009 (ip), vehicle: saline 113 % of control | dose: 200.0 mg/kg/injection, schedule: Q01DX009 (ip), vehicle: saline 115 % of control and 122 % of control | dose: 400.0 mg/kg/injection, schedule: Q01DX009 (ip), vehicle: saline 118 % of control

CC(C)=CCC/C(C)=C/CN1C(=O)c2ccccc2C1=O
inactive: [3] 92 % of control | [7] 87 % of control | [4] 92 % of control | [8] 96 % of control | [5] 108 % of control | [9] 94 % of control

CC1CN(C(=O)Nc2ccc(Cl)cc2)CC(C)O1 (configuration not stated)
inactive: dose: 75.0 mg/kg/injection, schedule: Q01DX009 (ip), vehicle: Klucel (hydroxypropylcellulose) (HPC) 110 % of control | dose: 150.0 mg/kg/injection, schedule: Q01DX009 (ip), vehicle: Klucel (hydroxypropylcellulose) (HPC) 110 % of control | dose: 300.0 mg/kg/injection, schedule: Q01DX009 (ip), vehicle: Klucel (hydroxypropylcellulose) (HPC) 120 % of control

CCOC(=O)Cn1nc(-c2ccc([N+](=O)[O-])o2)sc1=O
inactive: [10] 110 % of control | [3] 94 % of control | [4] 117 % of control

CN(C)N=Nc1ccccc1C(N)=O
active: dose: 75.0 mg/kg/injection, schedule: Q01DX009 (ip), vehicle: saline with Tween-80 161 % of control
inactive: dose: 22.0 mg/kg/injection, schedule: Q01DX009 (ip), vehicle: saline with Tween-80 111 % of control | dose: 26.6 mg/kg/injection, schedule: Q01DX009 (ip), vehicle: saline with Tween-80 104 % of control | dose: 33.0 mg/kg/injection, schedule: Q01DX009 (ip), vehicle: saline with Tween-80 100 % of control | dose: 40.0 mg/kg/injection, schedule: Q01DX009 (ip), vehicle: saline with Tween-80 91 % of control | [10] 111 % of control | dose: 60.0 mg/kg/injection, schedule: Q01DX009 (ip), vehicle: saline with Tween-80 120 % of control

Cc1cc(NCCCCCCNc2cc(C)nc3ccc(N)cc23)c2cc(N)ccc2n1
active: dose: 37.5 mg/kg/injection, schedule: Q04DX003 (ip), vehicle: saline 163 % of control | [1] 159 % of control | [11] 218 % of control | dose: 198.0 mg/kg/injection, schedule: Q04DX003 (ip), vehicle: Klucel (hydroxypropylcellulose) (HPC) 213 % of control | [6] 210 % of control | dose: 300.0 mg/kg/injection, schedule: Q04DX003 (ip), vehicle: saline 230 % of control and 213 % of control | dose: 400.0 mg/kg/injection, schedule: Q04DX003 (ip), vehicle: Klucel (hydroxypropylcellulose) (HPC) 254 % of control | [12] 250 % of control

Cc1oc(-c2ccccc2)nc1C(=O)O
inactive: [7] 106 % of control | [8] 100 % of control | [9] 102 % of control

CC(CC(Sc1ccccc1)Sc1ccccc1)CC(Sc1ccccc1)Sc1ccccc1
inactive: dose: 100.0 mg/kg/injection, schedule: Q04DX002 (ip), vehicle: saline with Tween-80 100 % of control | dose: 200.0 mg/kg/injection, schedule: Q04DX002 (ip), vehicle: saline with Tween-80 92 % of control | dose: 400.0 mg/kg/injection, schedule: Q04DX002 (ip), vehicle: saline with Tween-80 106 % of control

Nc1ccn([C@@H](C=O)O[C@@H](C=O)CO)c(=O)n1
active: [6] 150 % of control | [12] 181 % of control
inactive: dose: 8.8 mg/kg/injection, schedule: Q01DX009 (ip), vehicle: saline 115 % of control | dose: 66.0 mg/kg/injection, schedule: Q04DX003 (ip), vehicle: saline 100 % of control | [2] 112 % of control | [11] 120 % of control

CCc1cc(O)c(Cl)c(C)c1Cl
inactive: dose: 50.0 mg/kg/injection, schedule: Q01DX009 (ip), vehicle: gum acacia 119 % of control | dose: 50.0 mg/kg/injection, schedule: Q04DX003 (ip), vehicle: gum acacia 111 % of control | dose: 100.0 mg/kg/injection, schedule: Q01DX009 (ip), vehicle: gum acacia 111 % of control | dose: 100.0 mg/kg/injection, schedule: Q04DX003 (ip), vehicle: gum acacia 100 % of control | dose: 200.0 mg/kg/injection, schedule: Q04DX003 (ip), vehicle: gum acacia 100 % of control

CN(C)CCNc1ccc([N+](=O)[O-])c2sc3ccccc3c(=O)c12
active: dose: 25.0 mg/kg/injection, schedule: Q01DX009 (ip), vehicle: Klucel (hydroxypropylcellulose) (HPC) 157 % of control and 166 % of control | dose: 50.0 mg/kg/injection, schedule: Q04DX003 (ip), vehicle: Klucel (hydroxypropylcellulose) (HPC) 162 % of control
inactive: dose: 7.5 mg/kg/injection, schedule: Q01DX009 (ip), vehicle: Klucel (hydroxypropylcellulose) (HPC) 107 % of control | dose: 11.0 mg/kg/injection, schedule: Q01DX009 (ip), vehicle: Klucel (hydroxypropylcellulose) (HPC) 115 % of control | dose: 12.5 mg/kg/injection, schedule: Q04DX003 (ip), vehicle: Klucel (hydroxypropylcellulose) (HPC) 108 % of control | dose: 17.0 mg/kg/injection, schedule: Q01DX009 (ip), vehicle: Klucel (hydroxypropylcellulose) (HPC) 108 % of control | dose: 25.0 mg/kg/injection, schedule: Q04DX003 (ip), vehicle: Klucel (hydroxypropylcellulose) (HPC) 116 % of control | dose: 37.0 mg/kg/injection, schedule: Q01DX009 (ip), vehicle: Klucel (hydroxypropylcellulose) (HPC) 92 % of control and 108 % of control | dose: 50.0 mg/kg/injection, schedule: Q01DX009 (ip), vehicle: Klucel (hydroxypropylcellulose) (HPC) 91 % of control
